Measurements as given in patent publication US11780893B2, “Kv1.3 blockers” (Zealand Pharma A/S, priority 2019, dated 2023).
Bridge positions count the residues as written; N and C are the ends. Square brackets hold non-standard residues; d marks the D form. Peptide text beside a SMILES is read from it. Nle = CCCC[C@H](N)C(=O)O

Tests used:
Kv1.3 = target: T1, Kv1.3 (Homo sapiens, UniProt P22001); assay: cell-based; settings: CHO cells, whole-cell patch clamp; read-out: Potency IC50 (nM) Kv1.3
T1 construct: expressed in transfected cells; host or cells: Chinese Hamster Ovary (CHO)

Kv1.2 = target: T2, Kv1.2 (Homo sapiens, UniProt P16389); assay: cell-based; settings: for IC50: CHO cells, whole-cell patch clamp, read-out: Potency IC50 (nM) Kv1.2
T2 construct: expressed in transfected cells; host or cells: Chinese Hamster Ovary (CHO)

[1] = target: T3, human Kv1.3 voltage-gated K+ channel (Homo sapiens, UniProt P22001); assay: cell-based; settings: inhibition of thallium flux, CHO-DUKX cells with human Kv1.3; read-out: IC50
T3 construct: host or cells: CHO-DUKX

Rat whole blood = Rat whole blood (Rattus norvegicus, UniProt P15384)
Kv1.6 = target: T4, Kv1.6 (Homo sapiens, UniProt P17658); assay: cell-based; settings: for IC50: CHO cells, whole-cell patch clamp, read-out: Potency IC50 (nM) Kv1.6; for Selectivity Kv1.6/Kv1.3: ratio IC50[Kv1.6]/IC50[Kv1.3]
T4 construct: expressed in transfected cells; host or cells: Chinese Hamster Ovary (CHO)

Kv1.1 = target: T5, Kv1.1 (Homo sapiens, UniProt Q09470); assay: cell-based; settings: for IC50: CHO cells, whole-cell patch clamp, read-out: Potency IC50 (nM) Kv1.1; for Selectivity Kv1.1/Kv1.3: ratio IC50[Kv1.1]/IC50[Kv1.3]
T5 construct: expressed in transfected cells; host or cells: Chinese Hamster Ovary (CHO)
T5 sequence (Q09470 whole entry): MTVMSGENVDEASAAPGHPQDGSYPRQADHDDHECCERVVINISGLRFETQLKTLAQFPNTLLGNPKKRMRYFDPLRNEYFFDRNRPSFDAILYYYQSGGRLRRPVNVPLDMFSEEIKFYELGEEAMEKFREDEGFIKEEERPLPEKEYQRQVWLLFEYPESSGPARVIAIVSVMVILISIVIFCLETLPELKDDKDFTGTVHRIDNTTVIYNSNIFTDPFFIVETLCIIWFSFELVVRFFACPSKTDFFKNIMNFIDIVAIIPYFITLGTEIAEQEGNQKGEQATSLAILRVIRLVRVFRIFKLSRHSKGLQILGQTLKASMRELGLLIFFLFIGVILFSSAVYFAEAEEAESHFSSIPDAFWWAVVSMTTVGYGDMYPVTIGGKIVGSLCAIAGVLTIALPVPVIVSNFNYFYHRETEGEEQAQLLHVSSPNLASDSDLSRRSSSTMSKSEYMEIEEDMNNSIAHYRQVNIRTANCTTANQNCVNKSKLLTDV

T4 sequence (P17658 whole entry): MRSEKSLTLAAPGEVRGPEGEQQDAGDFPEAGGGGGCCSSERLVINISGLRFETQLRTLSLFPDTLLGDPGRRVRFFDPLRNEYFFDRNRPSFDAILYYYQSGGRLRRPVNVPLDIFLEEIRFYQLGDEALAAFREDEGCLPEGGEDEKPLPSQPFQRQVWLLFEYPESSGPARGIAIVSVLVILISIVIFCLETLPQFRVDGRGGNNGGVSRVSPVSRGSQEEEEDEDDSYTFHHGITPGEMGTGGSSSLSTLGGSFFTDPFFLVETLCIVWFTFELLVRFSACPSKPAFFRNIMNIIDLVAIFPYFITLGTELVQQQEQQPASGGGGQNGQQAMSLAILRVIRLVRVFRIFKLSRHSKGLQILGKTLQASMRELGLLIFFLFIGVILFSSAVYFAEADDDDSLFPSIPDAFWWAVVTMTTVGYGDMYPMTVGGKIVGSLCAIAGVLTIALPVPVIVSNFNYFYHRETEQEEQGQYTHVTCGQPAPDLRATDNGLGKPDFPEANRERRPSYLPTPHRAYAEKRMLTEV
T2 sequence (P16389 whole entry): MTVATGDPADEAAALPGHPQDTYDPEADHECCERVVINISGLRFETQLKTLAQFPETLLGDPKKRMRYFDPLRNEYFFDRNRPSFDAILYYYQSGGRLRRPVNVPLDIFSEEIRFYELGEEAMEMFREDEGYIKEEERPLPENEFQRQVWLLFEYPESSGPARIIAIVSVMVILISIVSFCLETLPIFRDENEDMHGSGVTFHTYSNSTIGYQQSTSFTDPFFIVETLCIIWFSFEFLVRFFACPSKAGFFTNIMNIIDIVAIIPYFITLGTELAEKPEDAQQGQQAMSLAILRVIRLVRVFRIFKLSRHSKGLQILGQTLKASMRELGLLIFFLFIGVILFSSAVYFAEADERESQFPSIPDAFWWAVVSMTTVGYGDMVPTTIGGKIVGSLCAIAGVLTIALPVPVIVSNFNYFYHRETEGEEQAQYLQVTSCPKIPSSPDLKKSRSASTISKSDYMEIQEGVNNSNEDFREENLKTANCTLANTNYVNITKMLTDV
T3 sequence (P22001 whole entry): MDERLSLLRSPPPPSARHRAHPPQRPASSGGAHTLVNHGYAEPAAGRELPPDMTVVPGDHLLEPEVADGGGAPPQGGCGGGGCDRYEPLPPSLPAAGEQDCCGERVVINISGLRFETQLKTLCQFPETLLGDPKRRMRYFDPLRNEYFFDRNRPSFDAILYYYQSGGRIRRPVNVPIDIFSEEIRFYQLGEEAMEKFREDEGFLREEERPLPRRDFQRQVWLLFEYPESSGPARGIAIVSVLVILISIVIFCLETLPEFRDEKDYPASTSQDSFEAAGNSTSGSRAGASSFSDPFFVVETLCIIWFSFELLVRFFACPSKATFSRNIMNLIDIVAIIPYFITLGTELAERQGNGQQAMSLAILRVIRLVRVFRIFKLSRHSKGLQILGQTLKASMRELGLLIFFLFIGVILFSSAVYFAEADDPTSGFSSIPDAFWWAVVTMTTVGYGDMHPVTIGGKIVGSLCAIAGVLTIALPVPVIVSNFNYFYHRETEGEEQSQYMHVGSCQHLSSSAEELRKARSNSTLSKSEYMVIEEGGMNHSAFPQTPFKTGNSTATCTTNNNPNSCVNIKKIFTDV
T1 sequence (P22001 whole entry): as above
Chain of Rat whole blood (P15384 whole entry): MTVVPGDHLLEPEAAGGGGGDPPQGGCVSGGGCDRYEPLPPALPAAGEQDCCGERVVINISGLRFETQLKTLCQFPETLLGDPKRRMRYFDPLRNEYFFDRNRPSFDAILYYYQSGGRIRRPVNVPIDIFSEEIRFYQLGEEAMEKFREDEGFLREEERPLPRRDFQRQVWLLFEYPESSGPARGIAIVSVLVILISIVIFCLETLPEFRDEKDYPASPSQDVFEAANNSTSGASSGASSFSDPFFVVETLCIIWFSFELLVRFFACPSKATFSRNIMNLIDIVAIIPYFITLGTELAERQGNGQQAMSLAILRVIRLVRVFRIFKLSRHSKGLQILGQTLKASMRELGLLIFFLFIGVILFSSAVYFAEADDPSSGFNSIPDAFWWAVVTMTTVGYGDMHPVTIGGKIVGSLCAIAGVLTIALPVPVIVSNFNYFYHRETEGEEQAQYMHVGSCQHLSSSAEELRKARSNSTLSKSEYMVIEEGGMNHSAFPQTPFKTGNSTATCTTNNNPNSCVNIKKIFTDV

Compound	IC50 (Kv1.3)	IC50 (Kv1.2)	Selectivity Kv1.2/Kv1.3 (Kv1.2; ratio IC50[Kv1.2]/IC50[Kv1.3])	IC50 [1]	IC50 (Rat whole blood)	IC50 (Kv1.6)	Selectivity Kv1.6/Kv1.3 (Kv1.6)	IC50 (Kv1.1)	Selectivity Kv1.1/Kv1.3 (Kv1.1)
CCCC[C@H](NC(=O)[C@@H]1CCCN1)C(=O)N[C@@H](CC(=O)O)C(=O)N[C@@H](CCCC)C(=O)N[C@@H](CCCNC(=N)N)C(=O)N[C@H]1CSSC[C@@H]2NC(=O)[C@H](CCCCN)NC(=O)CNC(=O)[C@H](Cc3ccccc3)NC(=O)[C@H]([C@@H](C)CC)NC(=O)[C@@H]3CSSC[C@@H](C(N)=O)NC(=O)[C@@H]4CCCN4C(=O)[C@H](Cc4ccc(O)cc4)NC(=O)[C@@H]4CSSC[C@H](NC(=O)[C@H](CCCCN)NC(=O)[C@H](CCC(N)=O)NC(=O)[C@H](CCCCN)NC(=O)[C@H](CSSC[C@H](NC(=O)[C@H](CCCCN)NC(=O)[C@H](CCCCN)NC(=O)[C@H](CC(N)=O)NC(=O)[C@H](CCCC)NC2=O)C(=O)N[C@@H](CCCCN)C(=O)N4)NC(=O)[C@H](CCC(=O)O)NC(=O)[C@H](C(C)C)NC(=O)[C@H](CO)NC(=O)[C@H](C)NC(=O)[C@H](CO)NC1=O)C(=O)N[C@@H](CC(C)C)C(=O)N[C@@H](CCCCN)C(=O)N[C@@H](C)C(=O)N[C@@H]([C@@H](C)CC)C(=O)NCC(=O)N3 [Compound 83] (H-P[Nle]D[Nle]RCSASVECKQKCLKAIGCIFGKC[Nle]NKKCKCYPC-NH2; disulfide 6-27, 12-32, 16-34, 22-37)	0.63 nM	624 nM	995	0.12 nM	≤ 1 nM	1220 nM	1949	> 3000 nM	>4800
CCCC[C@@H]1NC(=O)[C@@H]2CSSC[C@H](NC(=O)[C@H](CCCNC(=N)N)NC(=O)[C@H](CCCC)NC(=O)[C@H](CC(=O)O)NC(=O)[C@@H](N)CCCC)C(=O)N[C@@H](CO)C(=O)N[C@@H](C)C(=O)N[C@@H](CO)C(=O)N[C@@H](C(C)C)C(=O)N[C@@H](CCC(=O)O)C(=O)N[C@H]3CSSC[C@H](NC(=O)[C@H](CCCCN)NC(=O)[C@H](CCCCN)NC(=O)[C@H](CC(N)=O)NC1=O)C(=O)N[C@@H](CCCCN)C(=O)N[C@H](C(=O)N[C@@H](Cc1ccc(O)cc1)C(=O)N1CCC[C@H]1C(=O)N[C@@H](CCCNC(=N)N)C(=O)O)CSSC[C@H](NC(=O)[C@H](CCCCN)NC(=O)[C@H](CCC(N)=O)NC(=O)[C@H](CCCCN)NC3=O)C(=O)N[C@@H](CC(C)C)C(=O)N[C@@H](CCCCN)C(=O)N[C@@H](C)C(=O)N[C@@H]([C@@H](C)CC)C(=O)NCC(=O)N[C@@H](CO)C(=O)N[C@@H]([C@@H](C)CC)C(=O)N[C@@H](Cc1ccccc1)C(=O)NCC(=O)N[C@@H](CCCCN)C(=O)N2 [Compound 94] (H-[Nle]D[Nle]RCSASVECKQKCLKAIGSIFGKC[Nle]NKKCKCYPR-OH; disulfide 5-26, 11-31, 15-33)	0.17 nM	1860 nM	–	0.16 nM	≤ 1 nM	> 3000 nM	>17800	> 3000 nM	>17800
CCCC[C@H](NC(=O)[C@@H]1CCCN1)C(=O)N[C@@H](CCC(=O)O)C(=O)N[C@@H](CCCC)C(=O)N[C@@H](CCCNC(=N)N)C(=O)N[C@H]1CSSC[C@@H]2NC(=O)[C@H](CCCCN)NC(=O)CNC(=O)[C@H](Cc3ccccc3)NC(=O)[C@H]([C@@H](C)CC)NC(=O)[C@H](CO)NC(=O)CNC(=O)[C@H]([C@@H](C)CC)NC(=O)[C@H](C)NC(=O)[C@H](C)NC(=O)[C@H](CC(C)C)NC(=O)[C@@H]3CSSC[C@@H](C(=O)N[C@@H](Cc4ccc(O)cc4)C(=O)N4CCC[C@H]4C(=O)N[C@@H](CCCNC(=N)N)C(N)=O)NC(=O)[C@H](CCCCN)NC(=O)[C@H](CSSC[C@H](NC(=O)[C@H](CCC(=O)O)NC(=O)[C@H](C(C)C)NC(=O)[C@H](CO)NC(=O)[C@H](C)NC(=O)[C@H](CO)NC1=O)C(=O)N[C@@H](CCCCN)C(=O)N[C@@H](CCC(N)=O)C(=O)N[C@@H](CCCCN)C(=O)N3)NC(=O)[C@H](CCCCN)NC(=O)[C@H](CCCCN)NC(=O)[C@H](CC(N)=O)NC(=O)[C@H](CCCC)NC2=O [Compound 98] (H-P[Nle]E[Nle]RCSASVECKQKCLAAIGSIFGKC[Nle]NKKCKCYPR-NH2; disulfide 6-27, 12-32, 16-34)	0.18 nM	311 nM	–	0.11 nM	≤ 1 nM	> 3000 nM	>16200	> 3000 nM	>16200
